# Assays:
# [1] = tested on: human colorectal cancer cells (HCT116); experiment: Growth inhibition assay (cytotoxicity) in HCT116; type: cell-based; conditions: HCT-116
# Method: (§1) For present invention, the ATPase activity of yeast HSP90 was measured using malachite green assay. Formula I compounds for primary antitumoral activity were treated in human colorectal cancer cells (HCT116) showing increased expression levels of HSP90 client protein and cotoxicity IC50 values was measured as a result.
# yeast HSP90 = yeast HSP90 (Saccharomyces cerevisiae, UniProt P02829); experiment: Hsp90 ATPase assay (malachite green); type: biochemical
# Method: as §1
# yeast HSP90, sequence (P02829 whole entry): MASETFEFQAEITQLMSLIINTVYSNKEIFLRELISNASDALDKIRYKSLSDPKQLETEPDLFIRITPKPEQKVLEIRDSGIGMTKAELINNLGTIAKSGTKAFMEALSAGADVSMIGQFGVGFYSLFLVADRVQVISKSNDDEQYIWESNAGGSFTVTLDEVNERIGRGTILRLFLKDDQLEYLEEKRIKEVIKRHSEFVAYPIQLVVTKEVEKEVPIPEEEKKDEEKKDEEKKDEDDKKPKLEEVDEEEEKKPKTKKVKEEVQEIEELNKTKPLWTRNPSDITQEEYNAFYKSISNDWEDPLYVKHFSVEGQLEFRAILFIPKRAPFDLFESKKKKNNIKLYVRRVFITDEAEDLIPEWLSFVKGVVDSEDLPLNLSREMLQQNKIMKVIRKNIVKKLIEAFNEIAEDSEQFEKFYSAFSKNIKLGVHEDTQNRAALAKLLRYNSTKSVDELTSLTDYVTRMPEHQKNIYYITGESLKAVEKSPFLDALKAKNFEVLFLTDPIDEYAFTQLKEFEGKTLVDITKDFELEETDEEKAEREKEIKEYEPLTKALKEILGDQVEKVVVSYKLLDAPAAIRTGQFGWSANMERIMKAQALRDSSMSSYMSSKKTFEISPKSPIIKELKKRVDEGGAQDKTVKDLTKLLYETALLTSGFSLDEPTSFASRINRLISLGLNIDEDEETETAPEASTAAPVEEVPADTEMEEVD
Compound,IC50 (yeast HSP90),IC50 [1]
"CCNC(=O)c1noc(-c2cc(C(C)C)c(O)cc2O)c1-c1cc(CN)no1 [Compound I-30, 3′-(Aminomethyl)-5-(2,4-dihydroxy-5-isopropylphenyl)-N-ethyl-4,5′-biisoxazole-3-carboxamide]",500 to 1000 nM,< 500 nM
"CCNC(=O)c1noc(-c2cc(C(C)C)c(O)cc2O)c1-c1noc(S)n1 [Compound I-82, 5-(2,4-Dihydroxy-5-isopropylphenyl)-N-ethyl-4-(5-mercapto-1,2,4-oxadiazol-3-yl)isoxazole-3-carboxamide]",500 to 1000 nM,500 to 1000 nM
"CCNC(=O)c1noc(-c2cc(C(C)C)c(O)cc2O)c1-c1noc(C(=O)OC)n1 [Compound I-58, Methyl 3-(5-(2,4-dihydroxy-5-isopropylphenyl)-3-(ethylcarbamoyl)isoxazol-4-yl)-1,2,4-oxadiazole-5-carboxylate]",500 to 1000 nM,> 1000 nM
"CCNC(=O)c1noc(-c2cc(C(C)C)c(O)cc2O)c1-c1noc(C(=O)N(CC)CC)n1 [Compound I-74, 3-(5-(2,4-Dihydroxy-5-isopropylphenyl)-3-(ethylcarbamoyl)isoxazol-4-yl)-N,N-diethyl-1,2,4-oxadiazole-5-carboxamide]",500 to 1000 nM,500 to 1000 nM
"CCNC(=O)c1noc(-c2cc(C(C)C)c(O)cc2O)c1-c1cc(C(=O)O)no1 [Compound I-26, 5-(2,4-Dihydroxy-5-isopropylphenyl)-3-(ethylcarbamoyl)-4,5′-biisoxazole-3′-carboxylic acid]",> 1000 nM,> 1000 nM
"CCNC(=O)c1noc(-c2cc(C(C)C)c(O)cc2O)c1-c1cc(COCC(=O)O)no1 [Compound I-33, 2-((5-(2,4-Dihydroxy-5-isopropylphenyl)-3-(ethylcarbamoyl)-4,5′-biisoxazol-3′-yl)methoxy)acetic acid]",> 1000 nM,> 1000 nM
"CCNC(=O)c1noc(-c2cc(C(C)C)c(O)cc2O)c1-c1noc(C(O)CCl)n1 (stereo not shown) [Compound I-91, 4-(5-(2-Chloro-1-hydroxyethyl)-1,2,4-oxadiazol-3-yl)-5-(2,4-dihydroxy-5-isopropylphenyl)-N-ethylisoxazole-3-carboxamide]",500 to 1000 nM,< 500 nM
"CCNC(=O)c1noc(-c2cc(C(C)C)c(O)cc2O)c1-c1cc(CNC(C)=O)no1 [Compound I-31, 3′-(Acetamidomethyl)-5-(2,4-dihydroxy-5-isopropylphenyl)-N-ethyl-4,5′-biisoxazole-3-carboxamide]",500 to 1000 nM,< 500 nM
"CCNC(=O)c1noc(-c2cc(C(C)C)c(O)cc2O)c1-c1cc(/C=N/O)no1 [Compound I-53, 5-(2,4-Dihydroxy-5-isopropylphenyl)-N-ethyl-3′-((hydroxyimino)methyl)-4,5′-biisoxazole-3-carboxamide]",500 to 1000 nM,< 500 nM
"CCNC(=O)c1noc(-c2cc(C(C)C)c(O)cc2O)c1-c1cc(CN2CCCCC2)no1 [Compound I-38, 5-(2,4-Dihydroxy-5-isopropylphenyl)-N-ethyl-3′-(piperidin-1-ylmethyl)-4,5′-biisoxazole-3-carboxamide]",500 to 1000 nM,< 500 nM
"CC(=O)NCc1noc(-c2cc(C(C)C)c(O)cc2O)c1-c1ccsc1 [Compound I-6, N-((5-(2,4-Dihydroxy-5-isopropylphenyl)-4-(thiophen-3-yl)isoxazol-3-yl)methyl)acetamide]",> 1000 nM,< 500 nM
"CCNC(=O)c1noc(-c2cc(C(C)C)c(O)cc2O)c1-c1cc(/C=N/OCC)no1 [Compound I-55, 5-(2,4-Dihydroxy-5-isopropylphenyl)-3′-((ethoxyimino)methyl)-N-ethyl-4,5′-biisoxazole-3-carboxamide]",500 to 1000 nM,< 500 nM
"CCNC(=O)c1noc(-c2cc(C(C)C)c(O)cc2O)c1-c1cc(C(=O)OCC)no1 [Compound I-15, Ethyl 5-(2,4-dihydroxy-5-isopropylphenyl)-3-(ethylcarbamoyl)-4,5′-biisoxazole-3′-carboxylate]",< 500 nM,> 1000 nM
"CCNC(=O)c1cc(-c2c(C(=O)NCC)n[nH]c2-c2cc(C(C)C)c(O)cc2O)on1 [Compound I-29, 5-(5-(2,4-Dihydroxy-5-isopropylphenyl)-3-(ethylcarbamoyl)-1H-pyrazol-4-yl)-N-ethylisoxazole-3-carboxamide]",> 1000 nM,> 1000 nM
"CCNC(=O)c1noc(-c2cc(C(C)C)c(O)cc2O)c1-c1noc(CN2CCCCC2)n1 [Compound I-94, 5-(2,4-Dihydroxy-5-isopropylphenyl)-N-ethyl-4-(5-(piperidin-1-ylmethyl)-1,2,4-oxadiazol-3-yl)isoxazole-3-carboxamide]",< 500 nM,< 500 nM
"CCNC(=O)c1noc(-c2cc(C(C)C)c(O)cc2O)c1-c1noc(CO)n1 [Compound I-81, 5-(2,4-Dihydroxy-5-isopropylphenyl)-N-ethyl-4-(5-(hydroxymethyl)-1,2,4-oxadiazol-3-yl)isoxazole-3-carboxamide]",500 to 1000 nM,< 500 nM

# Second part, led by results:
IC50 (yeast HSP90),Compound,IC50 [1]
< 500 nM,"CCNC(=O)c1noc(-c2cc(C(C)C)c(O)cc2O)c1-c1noc(-c2ccc([N+](=O)[O-])cc2)n1 [Compound I-85, 5-(2,4-Dihydroxy-5-isopropylphenyl)-N-ethyl-4-(5-(4-nitrophenyl)-1,2,4-oxadiazol-3-yl)isoxazole-3-carboxamide]",< 500 nM
< 500 nM,"CCNC(=O)c1noc(-c2cc(C(C)C)c(O)cc2O)c1-c1noc(N2CCCCC2)n1 [Compound I-71, 5-(2,4-Dihydroxy-5-isopropylphenyl)-N-ethyl-4-(5-(piperidin-1-yl)-1,2,4-oxadiazol-3-yl)isoxazole-3-carboxamide]",< 500 nM
< 500 nM,"CCNC(=O)c1noc(-c2cc(C(C)C)c(O)cc2O)c1-c1cc(CNC(=O)CC)no1 [Compound I-34, 5-(2,4-Dihydroxy-5-isopropylphenyl)-N-ethyl-3′-(propionamidomethyl)-4,5′-biisoxazole-3-carboxamide]",< 500 nM
< 500 nM,"CCNC(=O)c1noc(-c2cc(C(C)C)c(O)cc2O)c1-c1noc(COC)n1 [Compound I-75, 5-(2,4-Dihydroxy-5-isopropylphenyl)-N-ethyl-4-(5-(methoxymethyl)-1,2,4-oxadiazol-3-yl)isoxazole-3-carboxamide]",< 500 nM
< 500 nM,"CCNC(=O)c1noc(-c2cc(C(C)C)c(O)cc2O)c1-c1nnn(C)n1 [Compound I-12, 5-(2,4-Dihydroxy-5-isopropylphenyl)-N-ethyl-4-(2-methyl-2H-tetrazol-5-yl)isoxazole-3-carboxamide]",< 500 nM
< 500 nM,"CCNC(=O)c1noc(-c2cc(C(C)C)c(O)cc2O)c1-c1noc(C(=O)N(C)C)n1 [Compound I-64, 3-(5-(2,4-Dihydroxy-5-isopropylphenyl)-3-(ethylcarbamoyl)isoxazol-4-yl)-N,N-dimethyl-1,2,4-oxadiazole-5-carboxamide]",< 500 nM
< 500 nM,"CCNCc1cc(-c2c(C(=O)NCC)noc2-c2cc(C(C)C)c(O)cc2O)on1 [Compound I-27, 5-(2,4-Dihydroxy-5-isopropylphenyl)-N-ethyl-3′-((ethylamino)methyl)-4,5′-biisoxazole-3-carboxamide]",< 500 nM

# From patent US20120309750A1, “5-MEMBERED HETEROCYCLE DERIVATIVES AND MANUFACTURING PROCESS THEREOF” (ILDONG PHARM CO., LTD., priority 2010, published 2012)
